In patent publication US20230027929A1, “MrgprX2 Antagonists and Uses Thereof” (Dermira, Inc., priority 2019, published 2023):

Biological target: T1, hMrgpMRGPRX2 (Homo sapiens, UniProt Q96LB1)
T1 construct: expressed in transfected cells
T1 sequence (Q96LB1 1-330): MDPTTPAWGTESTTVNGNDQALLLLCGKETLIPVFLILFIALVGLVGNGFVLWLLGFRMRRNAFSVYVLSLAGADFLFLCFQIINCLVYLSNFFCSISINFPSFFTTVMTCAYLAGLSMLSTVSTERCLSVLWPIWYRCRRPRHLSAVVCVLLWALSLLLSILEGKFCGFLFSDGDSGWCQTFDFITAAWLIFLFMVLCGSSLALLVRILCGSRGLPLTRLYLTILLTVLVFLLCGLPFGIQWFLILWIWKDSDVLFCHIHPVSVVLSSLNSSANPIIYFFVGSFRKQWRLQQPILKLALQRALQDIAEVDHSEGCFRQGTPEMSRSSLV
Assay: FLIPR intracellular calcium mobilization, antagonist activity in recombinant hMrgpMRGPRX2 expressing cells
Assay type: cell-based
Settings: read-out: Human MrgprX2 Antagonist pIC50 (converted)
Description: Potent and selective hMrgpMRGPRX2 compounds have been generated from compounds identified during a high throughput screening (HTS) campaign and followed up with cycles of structure activity based medicinal chemistry efforts. These compounds were characterized in recombinant hMrgpMRGPRX2 expressing cells for their antagonist activity and the potency was confirmed in the human mast cell line LAD-2, where the target is endogenously expressed. The assays used to determine potencies are functional read-out looking at intracellular calcium mobilization using the FLIPR™ technology. In these FLIPR assays, we test the identified compounds using recombinant cellular systems expressing mouse MrgprB2, mouse MrgprA1, gerbil MrgpMRGPRX2 orthologue, Chinese hamster MrgpMRGPRX2 orthologue and cynomolgus monkey MrgpMRGPRX2 orthologue, respectively for orthologue activity.

| IC50 [nM] | SMILES |
| --- | --- |
| 575 | O=C(Nc1ccc(Oc2cc(F)cc(F)c2)cn1)N1CCC[C@@H]1CO [Compound E132] |
| 1000 | O=C(NCC(O)C(F)(F)F)Nc1ccc(Oc2cc(F)cc(F)c2)cn1 (stereo not shown) [Compound E131] |
| 501 | CC1(C)CC1C(=O)Nc1ccc(Oc2cncc(F)c2)cn1 (stereo not shown) [Compound E052] |
| 1000 | COC(C)(C)C(=O)Nc1ccc(Oc2ccc(F)c(F)c2)cn1 [Compound E038] |
| 589 | CCN(C[C@@H](O)C(F)(F)F)C(=O)Nc1cnc(Oc2ccc(F)cc2)cn1 [Compound E252] |
| 26.9 | CCN(C[C@@H](O)C(F)(F)F)C(=O)Nc1cnc(Oc2cccc(F)c2C#N)cn1 [Compound E251] |
| 2000 | C[C@@H](C(=O)Nc1ccccn1)c1ccccc1 [Compound E210] |
| 468 | CCN(C[C@@H](O)C(F)(F)F)C(=O)Nc1ccc(Oc2cccc(C#N)c2F)cn1 [Compound E134] |
| 1910 | NS(=O)(=O)N1CCC[C@@H]1C(=O)Nc1ccc(Oc2ccc(F)c(F)c2)cn1 [Compound E277, (2R)-N-[5-(3,4-difluorophenoxy)-2-pyridyl]-1-sulfamoyl-pyrrolidine-2-carboxamide] |
| 200 | CC1(C(=O)Nc2ccc(Oc3ccc(F)c(F)c3)cn2)CC1 [Compound E032] |
| 155 | CCN(CC(C)(C)O)C(=O)Nc1ccc(Oc2ccc(F)c(F)c2)cn1 [Compound E112] |
| 31.6 | CC(C)C(=O)Nc1ccc(-c2cc(F)cc(F)c2)cn1 [Compound E173] |
| 1200 | CC(O)CN(CC(F)(F)F)C(=O)Nc1ccc(Oc2ccc(F)c(F)c2)cn1 (stereo not shown) [Compound E114] |
| 3980 | CC(C)C(=O)Nc1ccc(N2CCCC2)cn1 [Compound E081, 2-methyl-N-(5-pyrrolidin-1-yl-2-pyridyl)propanamide] |
| 10 | CC1(C)CCC1C(=O)Nc1ccc(Oc2ccc(F)c(F)c2)cn1 (stereo not shown) [Compound E062] |
| 8.51 | CN(C[C@@H](O)C(F)(F)F)C(=O)Nc1cnc(Oc2cc(F)ccc2F)cn1 [Compound E245] |
| 1.7 | CCN(C[C@@](C)(O)C(F)(F)F)C(=O)Nc1cnc(Oc2cc(F)ccc2F)cn1 [Compound E259] |
| 12.3 | CCN(C[C@@H](O)C(F)(F)F)C(=O)Nc1ccc(Oc2cccc(F)c2)cn1 [Compound E119] |
| 6310 | CC(C)C(=O)Nc1ccc(Cc2ccccc2)cn1 [Compound E181] |
| 100 | CC(C)C(=O)Nc1ccc(-c2cc(F)cc(C#N)c2)cn1 [Compound E174] |
| 7080 | O=C(Nc1ccc(Oc2cc(F)cc(F)c2)cn1)N1CC[C@@H](CO)C1 [Compound E130] |
| 3.47 | CCN(C[C@@H](O)C(F)(F)F)C(=O)Nc1cc(Oc2ccc(F)c(F)c2)ccn1 [Compound E150, 3-[4-(3,4-difluorophenoxy)-2-pyridyl]-1-ethyl-1-[(2R)-3,3,3-trifluoro-2-hydroxy-propyl]urea] |
| 200 | O=C(Nc1ccc(-c2cc(F)cc(F)c2)cn1)C1CC1 [Compound E179] |
| 3980 | CC(C)(CO)C(=O)Nc1ccc(Oc2ccc(F)c(F)c2)cn1 [Compound E039] |

| SMILES | IC50 [nM] |
| --- | --- |
| CC1(C)C(C(=O)Nc2ccc(N3CCC(F)C3)cn2)C1(C)C (stereo not shown) [Compound E099] | 25.1 |
| COCCOc1ccc(NC(=O)C2C(C)(C)C2(C)C)nc1 [Compound E071] | 1100 |
| CC1(C)C(C(=O)Nc2ccc(Oc3cncc(F)c3)nn2)C1(C)C [Compound E288, N-[6-[(5-fluoro-3-pyridyl)oxy]pyridazin-3-yl]-2,2,3,3-tetramethyl-cyclopropanecarboxamide] | 9120 |
| CC1(C)C(C(=O)Nc2ccc(C#N)cn2)C1(C)C [Compound E206] | 251 |
| CC1(C)C(C(=O)Nc2ccc(I)cn2)C1(C)C [Compound E200, N-(5-iodo-2-pyridyl)-2,2,3,3-tetramethyl-cyclopropanecarboxamide] | 14.8 |
| CC1(C)C(C(=O)Nc2cnc(Oc3cc(F)cc(C#N)c3)cn2)C1(C)C [Compound E223] | 31.6 |
| CC1(C)C(C(=O)Nc2ccc(OC3CCOCC3)cn2)C1(C)C [Compound E085] | 1000 |
